For data set [1] the following is noted: for content of (Z)-montelukast in isolated montelukast: after 3 hours reflux in toluene, precipitation with heptane.
Data set [2] in a line: Light exposure of methanolic montelukast solution to sunshine under inert argon, (Z)-isomer content by HPLC. In kind it is physicochemical. The following applies: methanol solution, argon atmosphere.
Data set [3] can be described thus: Stress test: methanolic solution of montelukast exposed to sunshine and air oxygen, HPLC monitoring. In kind it is physicochemical. Here is the method: The solution in glass apparatus was exposed to the influence of sunshine and air oxygen and samples were take repeatedly (at the times of 40 minutes, 1 day, 4 days and 14 days) (20 μl of the mixture further diluted by methanol to the volume of 1 ml) for HPLC analysis in the isocratic mode.
HPLC chromatograms were measured with the EliteLachrom device of Hitachi. For the analyses a column filled with the stationary phase of RP-18e was used, column temperature 20° C. As the mobile phase a mixture of acetonitrile (80%) and a 0.1 M aqueous solution of ammonium formate, treated with formic acid to pH 3.6 (20%), was used. The measurements were performed in the isocratic mode with the mobile phase flow rate of 1.5 ml/min. Spectrophotometric detection at the wavelength of 234 nm was used. For the preparation of the samples to be analyzed methanol was used as the solvent, 10-20 μl of the prepared solution were used for the injection.

Where two headings read alike, the source gives them in different places.

As to `CC(C)(O)c1ccccc1CC[C@@H](SCC1(CC(=O)[O-])CC1)c1cccc(/C=C\c2ccc3ccc(Cl)cc3n2)c1.[Na+]` [(Z)-montelukast, sodium salt of 1-[[[(1R)-1-[3-[(1Z)-2-(7-chloro-2-quinolinyl)ethenyl]phenyl]-3-[2-(1-hydroxy-1-methylethyl)phenyl]propyl]thio]methyl]cyclopropane acetic acid], in data set [1], the “content of (Z)-montelukast in isolated montelukast” value was “below 0.1%”. The “content of (Z)-montelukast in isolated montelukast” value in data set [1] (listed as (Z)-isomer) is listed as “less than 0.1%”. Also, the “content of (Z)-montelukast, initial mixture of isomers” value in data set [1] (before reflux, toluene solution) was 11%. For the same molecule, in data set [1] (toluene, without light), the “content of (Z)-montelukast after 30 minutes of reflux” value is recorded as 5.6% and the “content of (Z)-montelukast after 60 minutes of reflux” value worked out at 2.7%.
On to `CC(C)(O)c1ccccc1CC[C@@H](SCC1(CC(=O)[O-])CC1)c1cccc(/C=C/c2ccc3ccc(Cl)cc3n2)c1.[Na+]` [montelukast, sodium salt of [R-(E)]-1-[[[1-[3-[2-(7-chloro-2-quinolinyl)ethenyl]phenyl]-3-[2-(1-hydroxy-1-methylethyl)phenyl]propyl]thio]-methyl]cyclopropane acetic acid], for which the “content of the (Z)-isomer according to HPLC after exposure to sunshine” value is given as 11% in data set [2] (sunshine 1.5 hours (Example 7)); “approximately 11%” in data set [2] (sunshine 1.5 hours (Example 7), listed as Montelukast); “approx. 73%” in data set [2] (sunshine 4 days (Example 9)). Also, the “rate of transformation of montelukast to (Z)-montelukast sulfoxide (XII)” value in data set [3] (light and oxygen induced degradation) was “relatively slow”. In data set [3] (methanolic solution, sunshine and air oxygen), the “rate of transformation of montelukast (I) to (Z)-montelukast (V)” value is “unexpectedly fast”. In data set [3] (methanolic solution, sunshine and air oxygen, HPLC isocratic), the “sensitivity of the substance to light and air oxygen” value is “high sensitivity”.

The record behind these values is patent US20110034692A1 (ZENTIVA, K.S., priority 2008, published 2011).
